Molecules are shown by their SMILES.

POLRMT, sequence (O00411 42-1230): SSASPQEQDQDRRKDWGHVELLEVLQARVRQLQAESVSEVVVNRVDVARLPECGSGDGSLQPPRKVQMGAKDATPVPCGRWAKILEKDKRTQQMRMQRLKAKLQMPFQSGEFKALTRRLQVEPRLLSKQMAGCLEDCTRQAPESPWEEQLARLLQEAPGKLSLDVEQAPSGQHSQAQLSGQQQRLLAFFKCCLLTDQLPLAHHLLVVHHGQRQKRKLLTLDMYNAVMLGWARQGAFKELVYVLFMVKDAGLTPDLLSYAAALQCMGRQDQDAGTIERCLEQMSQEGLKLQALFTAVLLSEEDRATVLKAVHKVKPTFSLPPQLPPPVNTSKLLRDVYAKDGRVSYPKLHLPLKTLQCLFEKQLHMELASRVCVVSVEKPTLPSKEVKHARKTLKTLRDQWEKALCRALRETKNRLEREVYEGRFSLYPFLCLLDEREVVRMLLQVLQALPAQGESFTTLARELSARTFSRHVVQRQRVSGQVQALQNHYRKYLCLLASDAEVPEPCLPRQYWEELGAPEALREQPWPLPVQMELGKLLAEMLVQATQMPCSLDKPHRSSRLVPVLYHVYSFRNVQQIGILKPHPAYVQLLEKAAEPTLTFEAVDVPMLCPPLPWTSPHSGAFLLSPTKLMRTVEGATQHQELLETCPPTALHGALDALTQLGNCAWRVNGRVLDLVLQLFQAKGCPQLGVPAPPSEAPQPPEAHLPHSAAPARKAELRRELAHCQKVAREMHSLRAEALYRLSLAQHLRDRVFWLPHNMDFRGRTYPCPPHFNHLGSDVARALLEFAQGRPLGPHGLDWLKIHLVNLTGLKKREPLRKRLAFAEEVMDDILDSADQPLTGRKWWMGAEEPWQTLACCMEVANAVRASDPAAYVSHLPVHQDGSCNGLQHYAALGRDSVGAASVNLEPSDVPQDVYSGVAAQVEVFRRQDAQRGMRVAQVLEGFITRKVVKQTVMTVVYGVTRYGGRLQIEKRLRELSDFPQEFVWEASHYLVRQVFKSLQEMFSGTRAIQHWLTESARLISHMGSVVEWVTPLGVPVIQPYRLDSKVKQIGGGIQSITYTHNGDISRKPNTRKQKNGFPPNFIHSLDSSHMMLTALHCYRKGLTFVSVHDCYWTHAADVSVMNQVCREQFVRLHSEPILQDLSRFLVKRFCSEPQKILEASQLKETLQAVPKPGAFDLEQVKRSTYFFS

The target of the first test is POLRMT (Homo sapiens, UniProt O00411). The test is described as follows: homogeneous TR-FRET assay of mitochondrial transcription (inhibition of POLRMT). The format is biochemical. The note with it: isoquinolinone compounds (Table 1). In outline:
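Recombinant POLRMT (7.5 nM) with TFB2M, TFAM and linearized LSP plasmid template, 500 μM NTPs, pH 7.5 Mg buffer; 60 min at 37° C. Reaction stopped with EDTA/high-salt buffer, 407 bp RNA transcript detected by hybridized ATTO647/Europium-cryptate probe pair; TR-FRET 665/620 nm ratio taken as transcript yield.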
A word on the IC50: it is the concentration at which inhibition is half-maximal. Lower therefore signals inhibition by little substance. For `C[C@@H](Oc1ccc2c(-c3ccc(F)cc3Cl)c[nH]c(=O)c2c1)C(=O)N1CCOC[C@@H]1C(N)=O` [Example 122, (R)-4-((R)-2-((4-(2-chloro-4-fluorophenyl)-1-oxo-1,2-dihydroisoquinolin-7-yl)oxy)propanoyl)morpholine-3-carboxamide], the half-maximal inhibitory concentration (IC50) is 0.3 µM. Still for that read-out and setting: next, `C[C@@H](Oc1ccc2c(-c3ccc(F)cc3Cl)c[nH]c(=O)c2c1)C(=O)N1CCOC[C@H]1C(N)=O` [Example 123, (S)-4-((R)-2-((4-(2-chloro-4-fluorophenyl)-1-oxo-1,2-dihydroisoquinolin-7-yl)oxy)propanoyl)morpholine-3-carboxamide]: 0.3 µM; `CC[C@@H](Oc1ccc2c(-c3ccccc3C)c[nH]c(=O)c2c1)C(=O)O` [Example 126, (R)-2-((1-oxo-4-(o-tolyl)-1,2-dihydroisoquinolin-7-yl)oxy)butanoic acid]: 0.4 µM; `C[C@@H](Oc1ccc2c(-c3ccc(F)cc3Cl)c[nH]c(=O)c2c1)C(=O)N1CC2CC1CN2C` (stereo partly drawn) [Example 127, 4-(2-chloro-4-fluorophenyl)-7-(((2R)-1-(5-methyl-2,5-diazabicyclo[2.2.1]heptan-2-yl)-1-oxopropan-2-yl)oxy)isoquinolin-1(2H)-one]: 2 µM. Still for that read-out and setting: with `C[C@@H](Oc1ccc2c(-c3ccc(F)cc3Cl)c[nH]c(=O)c2c1)C(=O)N1CC[S+]([O-])CC1` [Example 128, (R)-4-(2-chloro-4-fluorophenyl)-7-((1-(1-oxidothiomorpholino)-1-oxopropan-2-yl)oxy)isoquinolin-1(2H)-one] the figure was 3 µM; with `C[C@@H](Oc1ccc2c(-c3ccc(F)cc3Cl)c[nH]c(=O)c2c1)C(=O)N1CCO[C@@H](C(N)=O)C1` [Example 129, (R)-4-((R)-2-((4-(2-chloro-4-fluorophenyl)-1-oxo-1,2-dihydroisoquinolin-7-yl)oxy)propanoyl)morpholine-2-carboxamide], 1 µM; with `C[C@@H](Oc1ccc2c(-c3ccc(F)cc3Cl)c[nH]c(=O)c2c1)C(=O)N1CCN(S(C)(=O)=O)CC1` [Example 130, (R)-4-(2-chloro-4-fluorophenyl)-7-((1-(4-(methylsulfonyl)piperazin-1-yl)-1-oxopropan-2-yl)oxy)isoquinolin-1(2H)-one], 2 µM. `C[C@@H](Oc1ccc2c(-c3ccc(F)cc3Cl)c[nH]c(=O)c2c1)C(=O)N1CCN(C)CC1` [Example 131, (R)-4-(2-chloro-4-fluorophenyl)-7-((1-(4-methylpiperazin-1-yl)-1-oxopropan-2-yl)oxy)isoquinolin-1(2H)-one] came in with an IC50 of 1 µM. Same read-out and setting: with `C[C@@H](Oc1ccc2c(-c3ccc(F)cc3Cl)c[nH]c(=O)c2c1)C(=O)N1CCO[C@H](C(N)=O)C1` [Example 132, (S)-4-((R)-2-((4-(2-chloro-4-fluorophenyl)-1-oxo-1,2-dihydroisoquinolin-7-yl)oxy)propanoyl)morpholine-2-carboxamide] the figure was 0.4 µM. Turning to `Cc1sccc1-c1c[nH]c(=O)c2cc(OCC#N)ccc12` [Example 133, 2-((4-(2-methylthiophen-3-yl)-1-oxo-1,2-dihydroisoquinolin-7-yl)oxy)acetonitrile], inhibition was half-maximal at 1 µM (IC50). Same read-out and setting: with `Cc1sccc1-c1c[nH]c(=O)c2cc(OCC(N)=O)ccc12` [Example 134, 2-((4-(2-methylthiophen-3-yl)-1-oxo-1,2-dihydroisoquinolin-7-yl)oxy)acetamide] the figure was 21 µM. The compound `Cc1c(F)cccc1-c1c[nH]c(=O)c2cc(OCC#N)ccc12` [Example 135, 2-((4-(3-fluoro-2-methylphenyl)-1-oxo-1,2-dihydroisoquinolin-7-yl)oxy)acetonitrile] registered an IC50 of 0.2 µM. On the same count and under the same terms, next, `Cc1c(F)cccc1-c1c[nH]c(=O)c2cc(OCC(N)=O)ccc12` [Example 136, 2-((4-(3-fluoro-2-methylphenyl)-1-oxo-1,2-dihydroisoquinolin-7-yl)oxy)acetamide]: 3 µM. Still for that read-out and setting: next, `CCc1ccccc1-c1c[nH]c(=O)c2cc(OCC#N)ccc12` [Example 137, 2-((4-(2-ethylphenyl)-1-oxo-1,2-dihydroisoquinolin-7-yl)oxy)acetonitrile]: 0.3 µM; `CCc1ccccc1-c1c[nH]c(=O)c2cc(OCC(N)=O)ccc12` [Example 138, 2-((4-(2-ethylphenyl)-1-oxo-1,2-dihydroisoquinolin-7-yl)oxy)acetamide]: 12 µM; `C[C@@H](Oc1ccc2c(-c3ccc(F)cc3Cl)c[nH]c(=O)c2c1)C(=O)N1CCS(=N)(=O)CC1` [Example 139, (R)-4-(2-chloro-4-fluorophenyl)-7-((1-(1-imino-1-oxido-1λ^6-thiomorpholino)-1-oxopropan-2-yl)oxy)isoquinolin-1(2H)-one]: 2 µM.

Still in this test, the particulars now being: quinolinone compounds (Table 2).
Regarding `COc1ccc2c(-c3ccc(F)cc3Cl)cc(=O)[nH]c2c1` [Example Q1, 4-(2-chloro-4-fluorophenyl)-7-methoxyquinolin-2(1H)-one], the half-maximal inhibitory concentration (IC50) is > 100 µM. On the same count and under the same terms, next, `O=c1cc(-c2ccc(F)cc2Cl)c2ccc(O)cc2[nH]1` [Example Q2, 4-(2-chloro-4-fluorophenyl)-7-hydroxyquinolin-2(1H)-one]: > 100 µM; `Cc1cc(F)ccc1-c1cc(=O)[nH]c2cc(OC(C)C)ccc12` [Example Q3, 4-(4-fluoro-2-methylphenyl)-7-isopropoxy-1H-quinolin-2-one]: 4 µM. The same measure, in the same setting: with `CC(C)Oc1ccc2c(-c3ccc(F)cc3Cl)cc(=O)[nH]c2c1` [Example Q4, 4-(2-chloro-4-fluorophenyl)-7-isopropoxyquinolin-2(1H)-one] the figure was 23 µM; with `C[C@@H](Oc1ccc2c(-c3ccc(F)cc3Cl)cc(=O)[nH]c2c1)C(=O)N1CCCCC1` [Example Q5, (R)-4-(2-chloro-4-fluorophenyl)-7-((1-oxo-1-(piperidin-1-yl)propan-2-yl)oxy)quinolin-2(1H)-one], 5 µM. On to `C[C@@H](Oc1ccc2c(-c3ccc(F)cc3Cl)cc(=O)[nH]c2c1)C(=O)N(C)C` [Example Q6, (R)-2-((4-(2-chloro-4-fluorophenyl)-2-oxo-1,2-dihydroquinolin-7-yl)oxy)-N,N-dimethylpropanamide], for which the IC50 amounted to 18 µM. `COc1ccc2c(-c3ccccc3)cc(=O)[nH]c2c1` [Example Q9, 7-methoxy-4-phenylquinolin-2(1H)-one]: the IC50 was > 100 µM. Still for that read-out and setting: next, `Cc1ccccc1-c1cc(=O)[nH]c2cc(OC(C)C)ccc12` [Example Q10, 7-isopropoxy-4-(o-tolyl)quinolin-2(1H)-one]: 2 µM.

In the case of `CCC(C)Oc1ccc2c(-c3ccccc3C)cc(=O)[nH]c2c1` (centres unmarked) [Example Q11, 7-(sec-butoxy)-4-(o-tolyl)quinolin-2(1H)-one], the 50% inhibitory concentration (IC50) stood at 3 µM. On the same count and under the same terms, with `Cc1ccccc1-c1cc(=O)[nH]c2cc(OCC(C)C)ccc12` [Example Q12, 7-isobutoxy-4-(o-tolyl)quinolin-2(1H)-one] the figure was 18 µM; with `Cc1ccccc1-c1cc(=O)[nH]c2cc(O[C@H](C)C(=O)O)ccc12` [Example Q13, (R)-2-((2-oxo-4-(o-tolyl)-1,2-dihydroquinolin-7-yl)oxy)propanoic acid], 3 µM.

As for `Cc1ccccc1-c1cc(=O)[nH]c2cc(O[C@H](C)C(=O)N3CCC(C(=O)O)CC3)ccc12` [Example Q14, (R)-1-(2-((2-oxo-4-(o-tolyl)-1,2-dihydroquinolin-7-yl)oxy)propanoyl)piperidine-4-carboxylic acid], the 50% inhibitory concentration (IC50) came out at 7 µM. `Cc1ccccc1-c1cc(=O)[nH]c2cc(O[C@H](C)C(=O)N3CCC[C@H](C(=O)O)C3)ccc12` [Example Q15, (S)-1-((R)-2-((2-oxo-4-(o-tolyl)-1,2-dihydroquinolin-7-yl)oxy)propanoyl)piperidine-3-carboxylic acid]: half-maximal inhibition (IC50) was put at 7 µM.

The values are drawn from patent US20240391875A1, “ISOQUINOLINONES AND QUINOLINONES AS MODULATORS OF POLRMT” (Pretzel Therapeutics, Inc., priority 2021, published 2024).
